Series [1] can be described thus: in vitro. The note with it: human, HeLa cells.
Series [2] concerns HeLa cells. The series is described as follows: Plasmid DNA (pEGFP-C1) transfection by peptides (% cells with GFP signal, cell viability). The note with it: DNA transfection in HeLa cells using peptides; pEGFP-C1 plasmid.
Series [3] can be described thus: in vitro. The note with it: human, HeLa cells; for viability: Cell viability (%) (±St Dev.; n = 3).
The subject of series [4] is HeLa cells. The series is described as follows: GFP-NLS protein transduction assay (flow cytometry: Pos cells %, viability %, relative fluorescence intensity; microscopy). The settings on record: HeLa cells. In general terms: In flow cytometry, cells or beads pass a laser one at a time.
The test system of another series is THP-1 cells. As to the kind of experiment: HOXB4-WT transduction: target gene mRNA by real-time PCR (Fold over control) and total RNA (ng/μL) as marker for cell viability. The series is classed as cell-based, human. The settings on record: for Total RNA in ng/μL (mean ± St. Dev): peptide alone 1 μM, HOXB4-WT 0 μM, marker for cell viability. The protocol: Control and treated cells are transferred to separate sterile 1.5-mL tubes and centrifuged for 5 minutes at 300g. The cell pellets are resuspended in appropriate buffer to lyse the cells. RNAase-free 70% ethanol is then added followed by mixing by pipetting. The lysates are transferred to an RNeasy™ Mini spin column and centrifuged 30 seconds at 13000 RPM. After several washes with appropriate buffers and centrifugation steps, the eluates are collected in sterile 1.5-mL tubes on ice, and the RNA quantity in each tube is then quantified with a spectrophotometer. For DNase treatment, 2 μg of RNA is diluted in 15 μL of RNase-free water. 1.75 μL of 10X DNase buffer and 0.75 μL of DNase is then added, followed by incubation at 37° C. for 15 minutes. For reverse transcriptase treatment, 0.88 μL of EDTA […] is added, followed by incubation at 75° C. for 5 minutes. In a PCR tube, […] of DNase-treated RNA is mixed with 4 μL of iScript™ Reverse transcription Supermix (5X) and […] of nuclease-free water. The mix is incubated in a PCR machine with the following program: 5 min at 25° C., 30 min at 42° C. and 5 min at 85° C. Newly synthesized cDNA is transferred in sterile 1.5-mL tubes and diluted in 2 μL of nuclease-free water. 18 μL per well of a qPCR machine (CFX-96™) mix is then added in a PCR plate for analysis.
Briefly, THP-1 cells were plated at 30 000 cells/well one day before transduction. HOXB4-WT recombinant protein ([…]; Example 14.1) was co-incubated with different concentrations of His-CM18-PTD4 ([…]) and then exposed to THP-1 cells for 2.5 hours in the presence of serum. The cells were subjected to real time-PCR analysis as described in Example 14.2 to measure the mRNA levels of a target gene as a marker for HOXB4 activity, which was then normalized to the target gene mRNA levels detected in the negative control cells (no treatment), to obtain a “Fold over control” value. Total RNA levels (ng/μL) were also measured as a marker for cell viability.
Briefly, THP-1 cells were plated at 30 000 cells/well one day before the first time course experiment. HOXB4-WT recombinant protein (1.5 μM; Example 14.1) was co-incubated with His-CM18-PTD4 (0.8 μM) and then exposed to THP-1 cells for 0, 2.5, 4, 24 or 48 hours in presence of serum. The cells were subjected to real time-PCR analysis as described in Example 14.2 to measure mRNA levels of a target gene as a marker for HOXB4 activity, which was then normalized to the target gene mRNA levels detected in the negative control cells (no treatment), to obtain a “Fold over control” value. Total RNA levels (ng/μL) were also measured as a marker for cell viability.
Briefly, THP-1 cells were plated at 30 000 cells/well one day before the first time course experiment. HOXB4-WT recombinant protein (0.3 μM; Example 14.1) was co-incubated with His-CM18-PTD4 (0.8 μM) and then exposed to THP-1 cells for 0, 0.5, 1, 2, 2.5, 3 or 4 hours in presence of serum. The cells were subjected to real time-PCR analysis as described in Example 14.2 to measure mRNA levels of a target gene as a marker for HOXB4 activity, which was then normalized to target gene mRNA levels detected in the negative control cells (no treatment), to obtain a “Fold over control” value. Total RNA levels (ng/μL) were also measured as a marker for cell viability.
Briefly, THP-1 cells were plated at 30 000 cells/well one day before the first time course experiment. HOXB4-WT recombinant protein (1.5 μM; Example 14.1) co-incubated with the shuttle agents His-CM18-PTD4, TAT-KALA, EB1-PTD4, His-C(LLKK)3C-PTD4 and His-CM18-PTD4-His at 0.8 μM, and then exposed to THP-1 cells for 2.5 hours in presence of serum. The cells were subjected to real time-PCR analysis as described in Example 14.2 to measure mRNA levels of a target gene as a marker for HOXB4 activity, which was then normalized to target gene mRNA levels detected in the negative control cells (no treatment), to obtain a “Fold over control” value. […]
For orientation: Real-time PCR tracks product formation cycle by cycle.

A short description of series [5]: in vitro. The settings on record: human, HCC-78 cells.
Series [6] is described as follows: in vitro. The note with it: human, NCI-H196 cells.
Setting [7] is: Cell viability (%) (±St. Dev.; n = 3).

The term viability denotes the share of living cells, or the viability signal relative to a control. Higher therefore signals less harm to the cells.

Ends that are not written are not given here. Peptide text beside a SMILES is read from it.

Compound `CC[C@H](C)[C@H](NC(=O)[C@H](CCCCN)NC(=O)[C@H](CCCCN)NC(=O)[C@H](Cc1ccccc1)NC(=O)[C@H](CC(C)C)NC(=O)[C@H](CCCCN)NC(=O)[C@H](Cc1c[nH]c2ccccc12)NC(=O)[C@@H](N)CCCCN)C(=O)NCC(=O)N[C@@H](C)C(=O)N[C@H](C(=O)N[C@@H](CC(C)C)C(=O)N[C@@H](CCCCN)C(=O)N[C@H](C(=O)N[C@@H](CC(C)C)C(=O)N[C@H](C(=O)N[C@H](C(=O)NCC(=O)N[C@@H](CCCNC(=N)N)C(=O)N[C@@H](CCC(N)=O)C(=O)N[C@H](C(=O)N[C@@H](CCCCN)C(=O)N[C@H](C(=O)N[C@@H](Cc1c[nH]c2ccccc12)C(=O)N[C@@H](Cc1ccccc1)C(=O)N[C@@H](CCC(N)=O)C(=O)N[C@@H](CC(N)=O)C(=O)N[C@@H](CCCNC(=N)N)C(=O)N[C@@H](CCCNC(=N)N)C(=O)N[C@@H](CCSC)C(=O)N[C@@H](CCCCN)C(=O)N[C@@H](Cc1c[nH]c2ccccc12)C(=O)N[C@@H](CCCCN)C(=O)N[C@@H](CCCCN)C(=O)N[C@@H](CS)C(=O)O)[C@@H](C)CC)[C@@H](C)CC)[C@@H](C)O)[C@@H](C)O)C(C)C)C(C)C` [CM18-Pen-Cys] returned a viability in “in vitro [1]” of 16.1 ± 0.12%. For the same compound, the “Mean % cells with GFP signal (±St. Dev.; n = 3)” value (from here on “Mean % cells with GFP signal”) in the series on HeLa cells [2] stood at 0.01 ± 0.0%.

Regarding `CC(C)C[C@H](NC(=O)[C@H](CCCNC(=N)N)NC(=O)[C@H](CCC(=O)O)NC(=O)CNC(=O)[C@H](CCC(N)=O)NC(=O)[C@@H](NC(=O)[C@H](Cc1c[nH]c2ccccc12)NC(=O)[C@H](CC(C)C)NC(=O)[C@H](CCCCN)NC(=O)[C@H](CC(C)C)NC(=O)[C@H](CC(C)C)NC(=O)[C@H](CCCNC(=N)N)NC(=O)[C@H](CO)NC(=O)[C@H](Cc1c[nH]c2ccccc12)NC(=O)[C@H](CC(C)C)NC(=O)[C@H](CS)NC(=O)[C@H](CC(C)C)NC(=O)[C@H](CC(C)C)NC(=O)[C@H](Cc1c[nH]cn1)NC(=O)[C@H](Cc1c[nH]cn1)NC(=O)[C@H](Cc1c[nH]cn1)NC(=O)[C@H](Cc1c[nH]cn1)NC(=O)[C@H](Cc1c[nH]cn1)NC(=O)[C@@H](N)Cc1c[nH]cn1)[C@@H](C)O)C(=O)N[C@@H](CCCCN)C(=O)N[C@@H](C)C(=O)N[C@@H](CCCCN)C(=O)N[C@@H](CS)C(=O)N[C@@H](C)C(=O)N[C@@H](CCCCN)C(=O)N[C@@H](C)C(=O)N[C@@H](CS)C(=O)N[C@@H](CCC(=O)O)C(=O)N[C@@H](CCCNC(=N)N)C(=O)O` [FSD24] (H-HHHHHHLLCLWSRLLKLWTQGERLKAKCAKACER-OH; N-terminus and C-terminus assumed), the figures for the viability in the series “in vitro [3]” and in the series “in vitro [1]” were 75.3 ± 3.93% and 96.5 ± 3.02%, respectively. Also, the “Mean % cells with GFP signal” value stood at 0.20 ± 0.00% with HeLa cells [2] and 37.48 ± 4.08% in the series on HeLa cells [4] (Table B2, GFP-NLS cargo).

For the compound HOXB4-WT alone, in the series on THP-1 cells (THP-1 cells, HOXB4-WT alone 1.5 μM, no peptide, target gene mRNA by real time-PCR), the “Fold over control (mean ± St. Dev)” value was 2.5 ± 0.2.

For “LLKLWSRLLKLWTQGGSGGGSGRRLKAKRAKA [FSD18 alone]”, in the series on THP-1 cells (THP-1 cells), the “Total RNA in ng/μL (mean ± St. Dev)” value was determined as 157 ± 3.9 ng/µL.

With “HHHHHHLLKLWSRLLKLWTQGRRLKAKRAKAHHHHHH [FSD5]”, the values for the viability in the series “in vitro [3]” and in the series “in vitro [1]” were 86 ± 7.45% and 93.2 ± 8.63%, respectively. Further, the viability at 1 min, 8 µM in the series “in vitro [3]” (setting [7]) was determined as 85 ± 6.27%; in “in vitro [5]” it was 87.7 ± 6.52%; in the series “in vitro [6]”, 69.9 ± 6.38%. For the same compound, the viability at 1 min, 10 µM in the series “in vitro [3]” (setting [7]) turned out to be 76 ± 7.45%; in “in vitro [5]”, 15.9 ± 0.83%; in the series “in vitro [6]”, 47.2 ± 3.54%. Also, the viability at 2 min, 5 µM turned out to be 35.5 ± 4.82% in “in vitro [3]” (setting [7]), 75.3 ± 6.18% in “in vitro [5]” and 77.2 ± 6.17% in “in vitro [6]”.

Turning to KWKLARAFARAIKKLYARALRRQARTG [FSD12], the viability in “in vitro [3]” is 67.8 ± 4.83%; in “in vitro [1]” it was 58.6 ± 2.07%. In addition, the values for the viability at 1 min, 8 µM in “in vitro [5]” and in “in vitro [6]” were 66.3 ± 6.03% and 71.9 ± 6.44%, respectively. Moreover, the viability at 1 min, 10 µM in “in vitro [5]” is 46.5 ± 4.18%; in the series “in vitro [6]”, 72.5 ± 6.29%. In addition, the viability at 2 min, 5 µM in “in vitro [5]” came out at 75.1 ± 6.31%; in “in vitro [6]”, 76.5 ± 6.37%.

Take “YGRKKRRQRRRCKKALLALALHHLAHLALHLALALKKA [TAT-LAH4]”: the viability in “in vitro [1]” turned out to be 96.2 ± 2.7%. Further, the “Mean % cells with GFP signal” value in the series with HeLa cells [2] is 0.15 ± 0.00%.

In the case of “HHHHHHHHHKWKLFKKIGAVLKVLTTGYARAAARQARA [Peptide 9His-CM18-PTD4]”, the viability in “in vitro [1]” came to 98.72 ± 0.93%. Besides, in the series on HeLa cells [2], the “Mean % cells with GFP signal” value worked out at 0.04 ± 0.01%.

Regarding HOXB4-WT, the “Fold over control (mean ± St. Dev)” value is listed as 4.3 ± 0.1 in the series on THP-1 cells (Table 14.1, THP-1, 2.5 hours, serum, shuttle 0 μM, HOXB4-WT 1.5 μM (alone)); 3.4 ± 0.3 with THP-1 cells (Table 14.2, THP-1, serum, shuttle 0 μM, HOXB4-WT 1.5 μM (alone), exposure 2.5 h); 1 ± 0.14 in the series with THP-1 cells (Table 14.3, THP-1, serum, shuttle 0.8 μM, HOXB4-WT 0 μM (alone), exposure 2.5 h); 1 ± 0.11 in the series on THP-1 cells (Table 14.4, THP-1, serum, shuttle 0.8 μM, HOXB4-WT 0 μM (alone), exposure 2.5 h).

Consider “HHHHHHCMKVVWEIVLAKYKGGGGRARAASRRARA [FSD42]”, for which, in the series “in vitro [3]” (setting [7]), the viability at 1 min, 10 µM came to 97.3 ± 1.07%. In the series “in vitro [1]”, this compound returned a viability of 96.7 ± 1.96%. For the same compound, the “Mean % cells with GFP signal” value in the series with HeLa cells [2] turned out to be 0.12 ± 0.02%; in the series with HeLa cells [4] (Table C3, GFP-NLS 10 μM, 10 μM of the peptide, 1 min), 1.59 ± 0.39%.

“KWKLARAFARAIKKLGGSGGGSYARALRRQARTG [FSD10 alone]”: the “Total RNA in ng/μL (mean ± St. Dev)” value with THP-1 cells (THP-1 cells) stood at 181 ± 10.7 ng/µL.

Consider `CC(C)C[C@H](NC(=O)[C@H](CC(C)C)NC(=O)[C@H](CCCCN)NC(=O)[C@H](CCCCN)NC(=O)[C@H](CC(C)C)NC(=O)[C@H](CC(C)C)NC(=O)[C@H](CCCCN)NC(=O)[C@H](CCCCN)NC(=O)[C@H](CC(C)C)NC(=O)[C@H](CC(C)C)NC(=O)[C@@H](N)CS)C(=O)N[C@@H](CCCCN)C(=O)N[C@@H](CCCCN)C(=O)N[C@@H](CS)C(=O)O` [C(LLKK)3] (H-CLLKKLLKKLLKKC-OH; N-terminus and C-terminus assumed), for which, in “in vitro [1]”, the viability is 81.7 ± 2.34%. In addition, the “Mean % cells with GFP signal” value with HeLa cells [2] turned out to be 0.00 ± 0.00%.

For the origin of these results see patent US12286632B2, “Rationally-designed synthetic peptide shuttle agents for delivering polypeptide cargos from an extracellular space to the cytosol and/or nucleus of a target eukaryotic cell, uses thereof, methods and kits relating to same” (Feldan Bio Inc., priority 2016, dated 2025).
